The results in this text go back to patent publication US6004960A, “Pyridazinones as inhibitors of cyclooxygenase-2” (Merck Frosst Canada, Inc., priority 1998, dated 1999).

Assay [1] has as its target T1, COX-2 (Homo sapiens, UniProt P35354).
T1 sequence (P35354 18-604): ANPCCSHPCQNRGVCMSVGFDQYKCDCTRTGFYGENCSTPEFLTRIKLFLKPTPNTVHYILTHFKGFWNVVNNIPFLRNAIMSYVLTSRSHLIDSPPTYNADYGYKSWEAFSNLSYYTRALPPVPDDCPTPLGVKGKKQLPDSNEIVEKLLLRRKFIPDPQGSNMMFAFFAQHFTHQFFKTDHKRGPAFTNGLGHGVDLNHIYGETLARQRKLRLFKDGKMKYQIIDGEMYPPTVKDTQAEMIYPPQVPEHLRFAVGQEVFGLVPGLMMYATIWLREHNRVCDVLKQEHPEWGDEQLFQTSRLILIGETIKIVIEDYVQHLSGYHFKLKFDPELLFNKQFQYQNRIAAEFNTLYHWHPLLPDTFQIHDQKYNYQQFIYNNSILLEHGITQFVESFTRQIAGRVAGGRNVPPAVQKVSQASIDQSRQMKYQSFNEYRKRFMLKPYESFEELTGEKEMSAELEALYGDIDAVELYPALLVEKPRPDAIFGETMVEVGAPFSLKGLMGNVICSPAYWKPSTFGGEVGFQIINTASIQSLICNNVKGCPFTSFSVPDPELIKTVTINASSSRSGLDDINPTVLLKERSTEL
Put plainly: Whole cell assay for COX-2 using CHO transfected cell line (CHO [hCOX-2]), PGE2. Particulars: CHO [hCOX-2] cells, 10 μM AA. Also noted: expressed in transfected cells; host or cells: CHO (Chinese hamster ovary), stably transfected with pCDNAIII vector; CHO [hCOX-2]. The format is cell-based. The procedure: Chinese hamster ovary (CHO) cell lines which have been stably transfected with an eukaryotic expression vector pCDNAIII containing either the human COX-1 or COX-2 cDNA's are used for the assay. These cell lines are referred to as CHO [hCOX-1] and CHO [hCOX-2], respectively. […] Drugs to be tested are dissolved in DMSO to 66.7-fold the highest test drug concentration. […] Cells (0.3×10^6 cells in 200 p) are preincubated with 3 AIl of the test drug or DMSO vehicle for 15 min at 37° C. […] Cells are then challenged in the presence or absence of drug with the AA/HBSS solution to yield a final concentration of 0.5 μM AA in the CHOhCOX-1] assay and a final concentration of 10 μM AA in the CHO [hCOX-2] assay. […] The samples are centrifuged at 300×g at 4° C. for 10 min, and an aliquot of the clarified supernatant is appropriately diluted for the determination of PGE2 levels using an enzyme-liked immunoassay for PGE2 (Correlate PGE2 enzyme immunoassay kit, Assay Designs, Inc.). Cyclooxygenase activity in the absence of test compounds is determined as the difference in PGE2 levels of cells challenged with arachidonic acid versus the PGE2 levels in cells mock-challenged with ethanol vehicle. Inhibition of PGE2 synthesis by test compounds is calculated as a percentage of the activity in the presence of drug versus the activity in the positive control samples.
(§1) In the assay, inhibition is determined by measuring the amount of prostaglandin E2 (PGE2) synthesized in the presence of arachidonic acid, cyclooxygenase-I or cyclooxygenase-2 and a putative inhibitor.

Assay [2] has as its target COX-1 (Homo sapiens, UniProt P23219). Put plainly: Assay of COX-1 activity from U937 cell microsomes. The format is biochemical. Also noted: Assay of COX-1 Activity from U937 cell microsomes; endogenous in cells; host or cells: U937 cells, 100,000×g microsomal pellet. Particulars: PGE2, read-out: COX-1 (IC50 μM) U-937. The procedure: Assay of COX-1 Activity from U937 cell microsomes
U 937 cells are pelleted by centrifugation at 500×g for 5 min and washed once with phosphate-buffered saline and repelleted. […] The cell suspension is sonicated 4 times for 10 sec and is centrifuged at 10,000×g for 10 min at 4° C. The supernatant is centrifuged at 100,000×g for 1 hr at 4° C. The 100,000×g microsomal pellet is resuspended in 0.1 M Tris-HCl, pH 7.4, 10 mM EDTA to approximately 7 mg protein/ml and stored at -80° C.
Microsomal preparations are thawed immediately prior to use, subjected to a brief sonication, and then diluted to a protein concentration of 125 μg/ml in 0.1 M Tris-HCl buffer, pH 7.4 containing 10 mM EDTA, 0.5 mM phenol, 1 mM reduced glutathione and 1 μM hematin. Assays are performed in duplicate in a final volume of 250 pl. Initially, 5 µl of DMSO vehicle or drug in DMSO are added to 20 μl of 0.1 M Tris-HCl buffer, pH 7.4 containing 10 mM EDTA in wells of a 96-deepwell polypropylene titre plate. 200 μl of the microsomal preparation are then added and pre-incubated for 15 min at room temperature before addition of 25 μl of […] in 0.1 M Tris-HCl and 10 mM EDTA, pH 7.4. Samples are incubated for 40 min at room temperature and the reaction is stopped by the addition of 25 pl of 1 N HCl. Samples are neutralized with 25 μl of 1 N NaOH prior to quantitation of PGE2 content by radioimmunoassay (Dupont-NEN or Amersham assay kits). Cyclooxygenase activity is defined as the difference between PGE2 levels in samples incubated in the presence of arachidonic acid and ethanol vehicle.
as §1

Chain of COX-1 (P23219 24-599): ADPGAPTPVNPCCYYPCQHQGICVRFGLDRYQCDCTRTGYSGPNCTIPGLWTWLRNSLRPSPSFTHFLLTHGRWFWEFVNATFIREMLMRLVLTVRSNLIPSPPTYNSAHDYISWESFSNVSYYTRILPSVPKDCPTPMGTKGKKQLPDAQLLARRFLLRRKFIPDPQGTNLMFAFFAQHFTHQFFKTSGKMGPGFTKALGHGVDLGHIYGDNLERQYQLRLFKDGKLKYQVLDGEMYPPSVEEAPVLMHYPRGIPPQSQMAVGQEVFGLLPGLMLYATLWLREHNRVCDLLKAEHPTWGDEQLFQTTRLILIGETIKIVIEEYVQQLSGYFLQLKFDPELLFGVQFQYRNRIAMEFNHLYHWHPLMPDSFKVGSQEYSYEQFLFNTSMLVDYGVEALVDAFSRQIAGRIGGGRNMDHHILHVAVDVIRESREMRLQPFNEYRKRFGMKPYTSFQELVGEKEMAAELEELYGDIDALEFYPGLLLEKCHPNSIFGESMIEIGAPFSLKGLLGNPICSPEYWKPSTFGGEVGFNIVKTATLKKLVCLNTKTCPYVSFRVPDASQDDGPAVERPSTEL

`CS(=O)(=O)c1ccc(-c2cnn(Cc3ccccc3)c(=O)c2-c2cccnc2)cc1` [Example 28, 2-Benzyl-5-(4-methylsulfonyl)phenyl-4-(3-pyridyl)-2H-pyridazin-3-one]: the IC50 (commonly the concentration needed to halve the response being measured) in assay [1] was 0.13 µM; in assay [2], more than 10 µM.
